Test results taken from patent US12692290B2, “Modulators of tight junction permeability” (The University of Bath, priority 2020, dated 2026).
Where “and” joins values, the source holds several entries; their conditions need not be identical. Equal entries are not always repeated. Where two headings read alike, the source gives them in different places. Where a SMILES comes first, the peptide text is derived from it. [ ]: non-standard residue; d: D form.

Columns and labels:
[1] = test system: myosin light chain (MLC) phosphorylation; assay: Western blot, ratio of pMLC to total MLC in Caco-2 lysates; type: cell-based, human; details: 5 mM peptide, Caco-2 monolayers
Description: (§1) Lysates of Caco-2 monolayers prepared using 200 μL RIPA buffer along with 10 μL protease and phosphatase inhibitors per well were placed in 1.5 mL Eppendorf tubes and centrifuged at 4000×g for 10 min with supernatants being removed and stored at −80° C. until separation using a 12% SDS-PAGE gel. Protein samples were mixed 1:1 with loading buffer and denatured by heating at 95° C. for 5 min with 20 μL being loaded for analysis. Separated proteins were transferred onto a nitrocellulose membrane at 30 V for 75 min. Membranes were blocked with 5% bovine serum albumin in TBS-T for 2 h prior to an overnight incubation at 4° C. with primary antibodies diluted in TBS-T. Membranes were thrice washed with TBS-T and then incubated with fluorescent-tagged secondary antibodies at room temperature for 2 h. Membranes were thrice washed with TBS-T and analysed using a Licor imaging system.

Caco-2 monolayers [2] = assay: TEER of Caco-2 monolayers after apical PIP peptide; type: cell-based, human; details: for TEER reduced to % of baseline: 5 mM applied to apical surface of Caco-2 monolayers; for Effect on TEER compared to control (FIG. 1): 5 mM peptide, Caco-2 monolayer, one-way ANOVA with bonferroni post-test; for TEER % of initial baseline at time of washout: 5 mM peptide for 180 min, Caco-2
Description: An immortalized human intestinal epithelial cell line (Caco-2) was maintained in DMEM/F12 (Gibco, Paisley, UK) supplemented with 10% FBS, 2 mM L-glutamine (Gibco) 100 U/mL penicillin and 100 μg/mL streptomycin (Gibco). Caco-2 cells were seeded at a density of 7×10^4/well on Transwell™ (Corning, NY) polyester membrane filters (12 mm diameter, 0.4 μm pore size). Feeding with fresh media (Life Technologies, Paisley, UK) was carried out every second day. Caco-2 monolayers with trans-epithelial electrical resistance (TEER) >350 Ω·cm^2 were used for these studies; such TEER values as measured using fixed paddle electrodes and a voltohmeter (World Precision Instruments, UK), were typically achieved between days 15-18 following seeding on Transwell™ filters.
Apical to basal flux of 10 mg/mL 4 kDa fluorescent dextran (Sigma) was performed to assess PIP peptide impact on paracellular permeability. Apical (200 μL) and basal (500 μL) compartment media were replaced with fresh HBSS and allowed to equilibrate for 30 min when TEER measurements were obtained to ensure monolayer integrity. After apical application of the fluorescent dextra the basal compartment volume was collected at set times (typically 0, 15, 30 60, 90, 120 and 180 min) and replaced with fresh HBSS each time. Apical and basal compartment fluorescence was determined using a Fluorostar Omega microplate reader (BMG Labtech, Ortenburg, Germany). After 3 h, the apical compartment fluorescent dextran/peptide solution was removed and replaced with PBS and TEER values were recorded for a further 30 min to monitor monolayer recovery. TEER values were calculated by subtracting blank filter readings and normalized as a percentage of the initial TEER value for that monolayer.

PP1 = PP1 (Homo sapiens, UniProt P62140); assay: Binding assay of biotinylated peptides or MYPT1 1-299 to immobilised His-tagged PP1
Description: (§2) His-tagged PP1 diluted in PBS-T was incubated in nickel coated wells for 1 hour and washed three times with PBS-T. Wells were incubated with increasing concentrations of biotinylated PIP peptides or amino acids 1-299 of MYPT1. Wells were washed again three times with PBS-T and incubated with streptavidin conjugated to Alexa Fluor 488 for 1 hour. Wells were washed as previously and the plate was read for fluorescence (Ex:480 nm, Em: 510 nm).

occludin = assay: Western blot for occludin in lysates of Caco-2 monolayers; type: cell-based, human; details: Caco-2 monolayers treated for 90 min
Description: as §1

MYPT1 binding to PP1 = assay: MYPT1/PP1 binding assay in presence of increasing PIP peptide concentrations; details: read-out: KI for inhibition of MYPT1 binding to PP1
Description: as §2
The binding assay with MYPT1 was repeated in the presence of increasing concentrations of PIP peptides to determine the competition between MYPT1 and the peptides.

Caco-2 monolayers [3] = assay: TEER of Caco-2 monolayers after apical PIP peptide; type: cell-based, human; details: 5 mM peptide for 180 min, then washout, 90 min recovery

Sequence of PP1 (P62140 whole entry, the tested form may be a part): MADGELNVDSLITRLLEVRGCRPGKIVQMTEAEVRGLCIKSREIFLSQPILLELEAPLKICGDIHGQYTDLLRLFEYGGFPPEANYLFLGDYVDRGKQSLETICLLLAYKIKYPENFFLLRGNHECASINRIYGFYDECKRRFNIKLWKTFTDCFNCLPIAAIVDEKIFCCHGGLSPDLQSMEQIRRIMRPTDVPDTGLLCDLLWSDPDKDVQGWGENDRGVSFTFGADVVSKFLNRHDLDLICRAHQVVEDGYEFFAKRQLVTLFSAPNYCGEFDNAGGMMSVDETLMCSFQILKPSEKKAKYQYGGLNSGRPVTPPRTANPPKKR

| Molecule | ratio of pMLC to MLC compared to untreated control [1] | TEER reduced to % of baseline (Caco-2 monolayers [2]) [%] | Effect on TEER compared to control (FIG. 1) (Caco-2 monolayers [2]) | Kd (PP1) [µM] | occludin level % of control (occludin) [%] | Ki (MYPT1 binding to PP1) [µM] | TEER % of initial baseline at time of washout (Caco-2 monolayers [2]) | TEER % of baseline 90 min after washout (Caco-2 monolayers [3]) [%] | Kd (PP1; derived from binding curves, read-out: KD for binding to PP1) [µM] | Kd (PP1; same assay, read-out: KD for binding to PP1) [µM] |
| --- | --- | --- | --- | --- | --- | --- | --- | --- | --- | --- |
| CC(C)[C@@H](NC(=O)[C@@H](CCCCN)NC(=O)[C@@H](CC(=O)O)NC(=O)[C@@H](CCCNC(=N)N)NC(=O)[C@H](N)CCCNC(=N)N)C(=O)N[C@H](CCCCN)C(=O)N[C@@H](C(=O)N[C@H](CCCCN)C(=O)N[C@H](CCCCN)C(=O)N[C@H](CCCNC(=N)N)C(=O)N[C@H](CCCCN)C(N)=O)[C@H](C)O [PIP253, H-rrdkvktkkrk-NH2] (H-[dR][dR][dD][dK][dV][dK][dT][dK][dK][dR][dK]-NH2) | did not significantly increase | 88 | not significant | – | – | – | – | – | – | – |
| C[C@H](O)[C@@H](NC(=O)[C@@H](CCCCN)NC(=O)[C@@H](CC(=O)O)NC(=O)[C@@H](CCCCN)NC(=O)[C@@H](Cc1ccccc1)NC(=O)[C@@H](CCCNC(=N)N)NC(=O)[C@H](N)CCCNC(=N)N)C(=O)N[C@H](CCCCN)C(=O)N[C@H](CCCCN)C(=O)N[C@H](CCCNC(=N)N)C(=O)N[C@H](CCCCN)C(N)=O [PIP254, H-rrfkdktkkrk-NH2] (H-[dR][dR][dF][dK][dD][dK][dT][dK][dK][dR][dK]-NH2) | did not significantly increase | 85 | not significant | – | – | – | – | – | – | – |
| CC(C)[C@@H](NC(=O)[C@@H](CCCCN)NC(=O)[C@@H](Cc1ccccc1)NC(=O)[C@@H](CCCNC(=N)N)NC(=O)[C@H](N)CCCNC(=N)N)C(=O)N[C@H](CCCCN)C(=O)N[C@@H](C(=O)N[C@H](CCCCN)C(=O)N[C@H](CCCCN)C(=O)N[C@H](CCCNC(=N)N)C(=O)N[C@H](CCCCN)C(N)=O)[C@H](C)O [PIP250, H-rrfkvktkkrk-NH2, reference compound] (H-[dR][dR][dF][dK][dV][dK][dT][dK][dK][dR][dK]-NH2) | significantly increased | – | significantly different from control | 610 | 65.8 | 155 | ~ 50% and 49% | 54 | – | – |
| C[C@H](O)[C@@H](NC(=O)[C@@H](CCCCN)NC(=O)[C@@H](C)NC(=O)[C@@H](CCCCN)NC(=O)[C@@H](Cc1ccccc1)NC(=O)[C@@H](CCCNC(=N)N)NC(=O)[C@H](N)CCCNC(=N)N)C(=O)N[C@H](CCCCN)C(=O)N[C@H](CCCCN)C(=O)N[C@H](CCCNC(=N)N)C(=O)N[C@H](CCCCN)C(N)=O [PIP252, H-rrfkaktkkrk-NH2] (H-[dR][dR][dF][dK][dA][dK][dT][dK][dK][dR][dK]-NH2) | increased the ratio of pMLC to MLC, however to a lesser extent than the parent PIP250 | 66 | significantly different from control | 724 | 61.4 | – | 55% | 70 | – | – |
| CC(C)[C@@H](NC(=O)[C@@H](CCCCN)NC(=O)[C@@H](C)NC(=O)[C@@H](CCCNC(=N)N)NC(=O)[C@H](N)CCCNC(=N)N)C(=O)N[C@H](CCCCN)C(=O)N[C@@H](C(=O)N[C@H](CCCCN)C(=O)N[C@H](CCCCN)C(=O)N[C@H](CCCNC(=N)N)C(=O)N[C@H](CCCCN)C(N)=O)[C@H](C)O [PIP251, H-rrakvktkkrk-NH2] (H-[dR][dR][dA][dK][dV][dK][dT][dK][dK][dR][dK]-NH2) | increased the ratio of pMLC to MLC, however to a lesser extent than the parent PIP250 | 62.7 | significantly different from control | 1280 | 84.1 | – | 58% | 94 | – | – |
| MYPT11-299: amino acids 1-299 of MYPT1 (protein, UniProt O14974 1-299, looked up, fragment) MKMADAKQKRNEQLKRWIGSETDLEPPVVKRQKTKVKFDDGAVFLAACSSGDTDEVLKLLHRGADINYANVDGLTALHQACIDDNVDMVKFLVENGANINQPDNEGWIPLHAAASCGYLDIAEFLIGQGAHVGAVNSEGDTPLDIAEEEAMEELLQNEVNRQGVDIEAARKEEERIMLRDARQWLNSGHINDVRHAKSGGTALHVAAAKGYTEVLKLLIQAGYDVNIKDYDGWTPLHAAAHWGKEEACRILVDNLCDMEMVNKVGQTAFDVADEDILGYLEELQKKQNLLHSEKRDKKS | – | – | – | – | – | – | – | – | 0.05 | 0.049 |
